In US11040981B2, “Pyrrolotriazine compounds and methods of inhibiting TAM kinases” (Syros Pharmaceuticals, Inc., priority 2017, dated 2021):

How the values were obtained:
FLT3 = target: T1, FLT3 (Homo sapiens, UniProt P36888); assay: TR-FRET kinase activity assay, FLT3; type: biochemical; settings: ATP at Km, 60 minutes
T1 sequence (P36888 27-993): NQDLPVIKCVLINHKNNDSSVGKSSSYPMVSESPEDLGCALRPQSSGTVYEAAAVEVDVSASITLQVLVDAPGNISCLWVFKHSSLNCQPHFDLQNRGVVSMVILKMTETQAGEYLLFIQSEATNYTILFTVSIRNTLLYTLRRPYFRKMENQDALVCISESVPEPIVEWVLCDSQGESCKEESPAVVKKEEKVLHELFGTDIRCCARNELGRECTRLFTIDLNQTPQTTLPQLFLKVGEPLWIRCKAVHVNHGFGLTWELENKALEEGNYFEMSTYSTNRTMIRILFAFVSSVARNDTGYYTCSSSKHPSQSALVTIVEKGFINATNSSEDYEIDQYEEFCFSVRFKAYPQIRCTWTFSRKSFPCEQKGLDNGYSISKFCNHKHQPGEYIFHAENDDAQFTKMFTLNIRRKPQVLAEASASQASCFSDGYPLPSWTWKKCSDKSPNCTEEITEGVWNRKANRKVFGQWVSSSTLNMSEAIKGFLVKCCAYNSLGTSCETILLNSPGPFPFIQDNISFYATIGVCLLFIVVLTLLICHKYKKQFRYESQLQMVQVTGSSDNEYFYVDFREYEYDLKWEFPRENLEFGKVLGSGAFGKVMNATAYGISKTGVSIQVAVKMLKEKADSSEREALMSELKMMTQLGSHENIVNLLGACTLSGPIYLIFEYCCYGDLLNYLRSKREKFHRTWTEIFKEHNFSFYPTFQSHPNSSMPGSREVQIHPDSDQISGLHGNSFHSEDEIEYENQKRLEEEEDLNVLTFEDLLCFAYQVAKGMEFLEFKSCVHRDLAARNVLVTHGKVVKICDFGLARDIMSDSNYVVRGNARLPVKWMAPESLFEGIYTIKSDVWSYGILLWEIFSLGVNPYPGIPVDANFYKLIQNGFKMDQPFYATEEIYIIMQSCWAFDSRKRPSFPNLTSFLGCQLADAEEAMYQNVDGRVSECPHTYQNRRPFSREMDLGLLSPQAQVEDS
Outline: (§1)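 Compounds were tested against each kinase with ATP set at its own Km and a labelled tyrosine peptide substrate. Following one hour at room temperature in buffer containing 10 mM MgCl2 and 1 mM DTT, phosphorylated product was detected by Europium antibody TR-FRET after EDTA quench, and IC50 values were calculated.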

MERTK = target: T2, MERTK (Homo sapiens, UniProt Q12866); assay: TR-FRET kinase activity assay, MERTK; type: biochemical; settings: for IC50: TR-FRET activity assay, ATP at Km, 60 minutes, read-out: Mer IC50
T2 sequence (Q12866 21-999): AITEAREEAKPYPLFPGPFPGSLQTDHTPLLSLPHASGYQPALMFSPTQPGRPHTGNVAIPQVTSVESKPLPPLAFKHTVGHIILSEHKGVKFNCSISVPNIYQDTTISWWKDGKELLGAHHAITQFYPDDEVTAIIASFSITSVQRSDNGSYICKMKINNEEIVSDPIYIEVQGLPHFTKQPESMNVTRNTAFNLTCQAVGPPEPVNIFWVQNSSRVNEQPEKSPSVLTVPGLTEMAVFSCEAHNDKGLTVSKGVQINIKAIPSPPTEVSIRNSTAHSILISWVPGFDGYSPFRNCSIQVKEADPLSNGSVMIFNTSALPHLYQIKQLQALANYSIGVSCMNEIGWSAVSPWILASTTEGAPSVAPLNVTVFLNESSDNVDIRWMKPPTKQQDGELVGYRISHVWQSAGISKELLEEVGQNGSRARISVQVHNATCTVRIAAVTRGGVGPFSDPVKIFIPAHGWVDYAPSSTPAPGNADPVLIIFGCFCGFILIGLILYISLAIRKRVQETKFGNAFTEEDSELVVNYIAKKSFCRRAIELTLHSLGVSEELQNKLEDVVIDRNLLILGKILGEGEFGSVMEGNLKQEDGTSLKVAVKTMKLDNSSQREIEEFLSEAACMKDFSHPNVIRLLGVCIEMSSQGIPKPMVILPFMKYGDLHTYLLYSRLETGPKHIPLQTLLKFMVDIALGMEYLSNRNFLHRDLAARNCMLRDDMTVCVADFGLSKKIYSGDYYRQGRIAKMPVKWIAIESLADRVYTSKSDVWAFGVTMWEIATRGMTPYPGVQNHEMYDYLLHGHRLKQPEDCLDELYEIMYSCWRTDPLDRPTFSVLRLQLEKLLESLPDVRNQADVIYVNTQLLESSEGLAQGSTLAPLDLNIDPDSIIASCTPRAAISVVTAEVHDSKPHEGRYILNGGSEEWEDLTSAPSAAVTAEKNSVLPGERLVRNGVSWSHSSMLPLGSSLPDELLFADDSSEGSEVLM
Outline: as §1

[1] = ratio calculated as FLT3 IC50/Mer IC50
[2] = ratio of Mer to FLT3: FLT3 IC50/Mer IC50

SMILES	IC50 (FLT3)	IC50 (MERTK)	FLT3/Mer ratio (FLT3 IC50/Mer IC50) (MERTK; [1])	FLT3/Mer ratio (FLT3 IC50/Mer IC50) (MERTK; [2])
C[C@@H](COC(F)F)Nc1ncc2c(-c3cnn(C(C)(C)C(=O)N4CC5(COC5)C4)c3)cc([C@H]3CC[C@H](O)CC3)n2n1 [Compound 613]	≤ 100 nM	≤ 100 nM	+++ (“+++” represents a ratio of >100)	–
C[C@@H](CC(F)(F)F)Nc1ncc2c(-c3cnn(C(C)(C)C(=O)C4COC4)c3)cc([C@H]3CC[C@@](C)(O)CC3)n2n1 [Compound 609]	≤ 100 nM	≤ 100 nM	++ (“++” represents a ratio of between 10 and 100)	–
C[C@@H](CC(F)(F)F)Nc1ncc2c(-c3cnn(C(C)(C)C(=O)N4CCN(C)CC4)c3)cc(C3CCC(O)CC3)n2n1 (stereo partly drawn) [Compound 626]	≤ 100 nM	≤ 100 nM	++ (“++” represents a ratio of between 10 and 100)	–
COC[C@H](C)N(C)c1ncc2c(-c3ccnc(C)c3)cc([C@H]3CC[C@H](OC)CC3)n2n1 [Compound 176, 7-((trans)-4-methoxycyclohexyl)-N-((S)-1-methoxypropan-2-yl)-N-methyl-5-(2-methylpyridin-4-yl)pyrrolo[2,1-f][1,2,4]triazin-2-amine]	1000 to 10000 nM	1000 to 10000 nM	–	+ (“+” represents a ratio of >2.0 and <10)
COC[C@H](C)Nc1ncc2c(-c3ccnc(C)c3)cc([C@H]3CC[C@@H](O)CC3)n2n1 [Compound 183]	1000 to 10000 nM	≤ 100 nM	–	+++ (“+++” represents a ratio of >100)
CCC1(O)CCC(c2cc(-c3cnn(C4COC4)c3)c3cnc(NC(C)COC)nn23)CC1 (stereo not drawn) [Compound 615]	100 to 1000 nM	≤ 100 nM	+++ (“+++” represents a ratio of >100)	–
COC[C@H](C)Nc1ncc2c(-c3cnn(Cc4nnc(C)s4)c3)cc([C@H]3CC[C@H](O)CC3)n2n1 [Compound 596]	100 to 1000 nM	≤ 100 nM	+++ (“+++” represents a ratio of >100)	–
COC[C@H](C)Nc1ncc2c(-c3cnn(C)c3)cc([C@H]3CC[C@H](O)CC3)n2n1 [Compound 152]	100 to 1000 nM	≤ 100 nM	–	+++ (“+++” represents a ratio of >100)
COC[C@H](C)Nc1ncc2c(-c3ccc(C(=O)N4CCN(C)CC4)cc3)cc([C@H]3CC[C@H](O)CC3)n2n1 [Compound 144]	100 to 1000 nM	≤ 100 nM	–	+++ (“+++” represents a ratio of >100)
COC[C@H](C)Nc1ncc2c(-c3ccc([C@H](C)N4CCCC4)cc3)cc([C@H]3CC[C@H](O)CC3)n2n1 [Compound 165]	≤ 100 nM	≤ 100 nM	–	++ (“++” represents a ratio of between 10 and 100)
CCOC(=O)Cn1cc(-c2cc([C@H]3CC[C@H](O)CC3)n3nc(N[C@@H](C)COC)ncc23)cn1 [Compound 159]	100 to 1000 nM	≤ 100 nM	–	+++ (“+++” represents a ratio of >100)
COC[C@H](C)Nc1ncc2c(-c3ccnc(N4CCC(C)(O)CC4)c3)cc([C@H]3CC[C@H](O)CC3)n2n1 [Compound 605]	100 to 1000 nM	≤ 100 nM	+++ (“+++” represents a ratio of >100)	–
COC[C@H](C)Nc1ncc2c(-c3cnn(C(C)(C)c4nnc(C(F)F)o4)c3)cc([C@H]3CC[C@H](O)CC3)n2n1 [Compound 599]	1000 to 10000 nM	≤ 100 nM	+++ (“+++” represents a ratio of >100)	–
